The record followed here is ChEMBL document CHEMBL1944594, “Synthesis, biological evaluation, and docking studies of tetrahydrofuran- cyclopentanone- and cyclopentanol-based ligands acting at adrenergic α₁- and serotonine 5-HT1A receptors” (J Med Chem, 2012).

Assay [1] has as its target T1, Alpha-1B adrenergic receptor (Homo sapiens, UniProt P35368).
T1 sequence (P35368 whole entry): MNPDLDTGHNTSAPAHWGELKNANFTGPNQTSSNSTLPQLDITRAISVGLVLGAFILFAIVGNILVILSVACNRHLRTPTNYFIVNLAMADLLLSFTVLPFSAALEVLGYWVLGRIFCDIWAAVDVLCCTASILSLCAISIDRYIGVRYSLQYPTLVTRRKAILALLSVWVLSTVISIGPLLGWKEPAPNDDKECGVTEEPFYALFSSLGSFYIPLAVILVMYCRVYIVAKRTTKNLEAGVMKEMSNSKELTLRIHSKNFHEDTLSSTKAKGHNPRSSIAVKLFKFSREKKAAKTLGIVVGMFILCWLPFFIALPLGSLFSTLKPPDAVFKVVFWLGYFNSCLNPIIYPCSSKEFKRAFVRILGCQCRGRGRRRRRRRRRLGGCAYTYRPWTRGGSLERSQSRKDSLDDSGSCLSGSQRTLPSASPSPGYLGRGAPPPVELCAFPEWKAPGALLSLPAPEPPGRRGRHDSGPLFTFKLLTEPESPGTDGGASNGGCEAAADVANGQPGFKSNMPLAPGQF
The experiment in a line: biochemical.
Description: Displacement of [3H]prazosin from human recombinant alpha1B adrenoceptor expressed in CHO cells after 30 mins by liquid scintillation counting

Assay [2] deals with T2, Alpha-1D adrenergic receptor (Rattus norvegicus) (UniProt P23944).
T2 sequence (whole entry): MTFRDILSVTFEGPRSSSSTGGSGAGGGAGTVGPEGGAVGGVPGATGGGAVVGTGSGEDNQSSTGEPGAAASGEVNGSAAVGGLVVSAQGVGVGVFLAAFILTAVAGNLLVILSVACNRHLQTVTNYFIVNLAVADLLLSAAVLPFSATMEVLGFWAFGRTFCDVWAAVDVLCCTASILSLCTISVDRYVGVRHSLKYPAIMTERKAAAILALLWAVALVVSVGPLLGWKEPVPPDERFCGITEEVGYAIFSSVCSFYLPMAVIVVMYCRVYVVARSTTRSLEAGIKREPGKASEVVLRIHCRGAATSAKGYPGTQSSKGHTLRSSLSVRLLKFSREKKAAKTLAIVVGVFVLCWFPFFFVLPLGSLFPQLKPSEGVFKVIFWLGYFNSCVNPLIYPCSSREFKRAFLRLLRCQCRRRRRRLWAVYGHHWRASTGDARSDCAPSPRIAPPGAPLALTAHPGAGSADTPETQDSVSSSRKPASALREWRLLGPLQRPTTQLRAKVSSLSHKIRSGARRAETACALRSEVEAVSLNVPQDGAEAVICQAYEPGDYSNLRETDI
The experiment in a line: Antagonist activity at Alpha-1D adrenoceptor in Wistar rat endothelium denuded thoracic aorta assessed as inhibition of (-)-noradrenalilne-induced contraction after 30 mins. Type of assay: functional, tissue-based.

Assay [3] has as its target T3, 5-hydroxytryptamine receptor 1A (Homo sapiens) (UniProt P08908).
T3 sequence (whole entry): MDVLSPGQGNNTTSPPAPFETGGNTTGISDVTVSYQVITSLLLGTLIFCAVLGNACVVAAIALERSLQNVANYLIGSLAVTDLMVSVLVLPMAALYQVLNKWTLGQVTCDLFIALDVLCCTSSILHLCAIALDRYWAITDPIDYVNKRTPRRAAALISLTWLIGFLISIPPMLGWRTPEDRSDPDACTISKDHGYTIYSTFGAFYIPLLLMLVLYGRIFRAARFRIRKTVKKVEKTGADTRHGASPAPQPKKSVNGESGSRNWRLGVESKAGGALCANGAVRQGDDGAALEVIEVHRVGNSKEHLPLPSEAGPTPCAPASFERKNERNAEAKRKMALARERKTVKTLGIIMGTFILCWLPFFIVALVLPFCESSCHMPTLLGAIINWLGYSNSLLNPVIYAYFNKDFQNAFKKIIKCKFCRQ
The experiment in a line: Agonist activity at human recombinant 5HT1A receptor expressed in HeLa cells preincubated for 20 mins by [35S]GTPgammaS binding assay relative to 8-OH-DPAT. Type of assay: functional, cell-based.

For assay [4], the target named is T4, Alpha-1B adrenergic receptor (Rattus norvegicus) (UniProt P15823).
T4 sequence (whole entry): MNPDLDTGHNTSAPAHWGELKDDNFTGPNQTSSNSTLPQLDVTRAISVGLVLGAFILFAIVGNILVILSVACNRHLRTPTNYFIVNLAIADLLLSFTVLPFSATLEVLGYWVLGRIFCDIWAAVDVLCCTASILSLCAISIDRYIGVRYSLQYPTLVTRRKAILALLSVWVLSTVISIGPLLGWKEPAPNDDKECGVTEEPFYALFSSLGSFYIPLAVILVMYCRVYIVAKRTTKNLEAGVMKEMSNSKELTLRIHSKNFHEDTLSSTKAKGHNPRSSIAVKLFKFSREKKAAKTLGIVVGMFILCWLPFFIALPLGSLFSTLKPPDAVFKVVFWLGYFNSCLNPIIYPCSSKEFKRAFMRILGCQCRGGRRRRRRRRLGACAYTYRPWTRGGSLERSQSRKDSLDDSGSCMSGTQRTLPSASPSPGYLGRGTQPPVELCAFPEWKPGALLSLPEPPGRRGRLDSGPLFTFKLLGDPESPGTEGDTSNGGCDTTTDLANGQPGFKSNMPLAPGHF
The experiment in a line: Antagonist activity at Alpha-1B receptor in Wistar rat spleen assessed as inhibition of (-)-phenylephrine-induced contraction after 30 mins. Type of assay: functional, tissue-based.

Assay [5] has as its target T5, Alpha-1A adrenergic receptor (Homo sapiens, UniProt P35348).
T5 sequence (P35348 whole entry): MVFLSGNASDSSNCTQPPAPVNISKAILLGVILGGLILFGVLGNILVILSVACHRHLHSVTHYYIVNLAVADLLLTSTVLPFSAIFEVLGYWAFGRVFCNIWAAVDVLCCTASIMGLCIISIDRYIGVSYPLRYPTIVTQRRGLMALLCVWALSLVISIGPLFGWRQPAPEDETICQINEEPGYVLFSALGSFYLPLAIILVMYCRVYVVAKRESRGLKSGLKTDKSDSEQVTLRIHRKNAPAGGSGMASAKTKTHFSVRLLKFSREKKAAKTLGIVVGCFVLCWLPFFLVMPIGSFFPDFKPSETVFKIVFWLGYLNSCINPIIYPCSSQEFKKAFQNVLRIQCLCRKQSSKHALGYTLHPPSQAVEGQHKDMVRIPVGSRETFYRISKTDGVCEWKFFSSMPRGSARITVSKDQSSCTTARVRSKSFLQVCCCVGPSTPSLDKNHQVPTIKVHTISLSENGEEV
The experiment in a line: biochemical.
Description: Displacement of [3H]prazosin from human recombinant alpha1A adrenoceptor expressed in CHO cells after 30 mins by liquid scintillation counting

`COc1ccccc1OCCNC[C@H]1CCC(c2ccccc2)(c2ccccc2)[C@@H]1O` (relative stereo): the Ki in assay [1] was 74.1 nM; in assay [5], 110 nM. Also, the pKb in assay [2] was determined as 8.42; in assay [4], 7.7. In addition, in assay [3], the Emax was 64.1%.

Consider `O[C@@H]1[C@@H](CNCCOc2ccccc2)CCC1(c1ccccc1)c1ccccc1` (relative stereo), for which the Ki in assay [1] was 288 nM; in assay [5], more than 1000 nM. The negative-log Kb (pKb) was determined as 6.86 in assay [2] and 6.67 in assay [4]. In addition, in assay [3], the Emax turned out to be 64.9%.

As to `COc1ccccc1N1CCN(CC2COC(c3ccccc3)(c3ccccc3)O2)CC1` (stereo not given), the Ki is 6.76 nM in assay [1] and 0.263 nM in assay [5]. Besides, the figures for the pKb in assay [2] and in assay [4] were 8.14 and 6.69, respectively. Besides, the Emax in assay [3] amounted to 16.2%.

As to `COc1ccccc1OCCNCC1CCC(c2ccccc2)(c2ccccc2)C1=O` (stereo not given), the Ki in assay [1] and in assay [5] was more than 1000 nM throughout. Further, the figures for the pKb in assay [2] and in assay [4] were 6.54 and 6.92, respectively. The Emax in assay [3] turned out to be 39.4%.

For the compound `COc1ccccc1OCCNCC1CCC(c2ccccc2)(c2ccccc2)O1` (stereo not given), the Ki in assay [1] is 39.8 nM; in assay [5], 26.9 nM. The pKb worked out at 8.09 in assay [2] and 6.92 in assay [4]. Besides, in assay [3], the Emax turned out to be 53.4%.

Take `O[C@@H]1[C@H](CNCCOc2ccccc2)CCC1(c1ccccc1)c1ccccc1` (relative stereo): the Ki in assay [1] and in assay [5] was more than 1000 nM each time. For the same compound, the pKb amounted to 6.88 in assay [2] and 6.26 in assay [4]. In addition, the Emax in assay [3] was determined as 46.5%.

For `COc1ccccc1N1CCN(C[C@H]2CCC(c3ccccc3)(c3ccccc3)[C@@H]2O)CC1`, the Ki in assay [1] is 245 nM; in assay [5], 44.7 nM. Also, the pKb worked out at 6.82 in assay [2] and 7.14 in assay [4]. The Emax in assay [3] stood at 37.3%.

Turning to `COc1ccccc1N1CCN(C[C@H]2CCC(c3ccccc3)(c3ccccc3)[C@H]2O)CC1` (relative stereo), the Ki in assay [1] was 166 nM; in assay [5], 38.9 nM. Besides, the pKb in assay [2] was determined as 7.21; in assay [4] it was 7.25. The maximal effect (Emax) in assay [3] turned out to be 47.1%.

As for `O=C1C(CNCCOc2ccccc2)CCC1(c1ccccc1)c1ccccc1` (stereo not given), the Ki in assay [1] and in assay [5] was more than 1000 nM each time. The pKb is 6.3 in assay [2] and 6.95 in assay [4]. Further, the Emax in assay [3] is 25.5%.

Usually Ki stands for the dissociation constant of the complex between target and ligand, obtained from inhibition or displacement. A word on the pKb: it is the negative decadic logarithm of the Kb, by convention in mol/L. As a reminder, the Emax is the maximal effect, on the per cent scale that the assay sets.
